Laboratory results reported in publication PMC10743905, “Design, Synthesis, and In Vitro and In Vivo Bioactivity Studies of Hydrazide–Hydrazones of 2,4-Dihydroxybenzoic Acid” (International Journal of Molecular Sciences, 2023).
Converted amounts (≈) assume the structure as drawn. Like-named read-outs stand apart in the source and are kept apart here.

Legend:
[1] = test system: Bacillus subtilis ATCC 6633; assay: Broth microdilution MIC/MBC; format: cell-based
Source text: Detailed procedures are presented in the Supplementary Materials. […]
(§1) In vitro antimicrobial activity assays - Methodology
(§2) The examined compounds 1 - 24 were screened in vitro for antibacterial and antifungal activities using the broth microdilution method according to procedure reported earlier by our research group and European Committee on Antimicrobial Susceptibility Testing (EUCAST) and Clinical and Laboratory Standards Institute (CLSI) guidelines against a panel of reference and clinical or saprophytic strains of microorganisms, in-cluding Gram-positive bacteria, Staphylococcus aureus ATCC 43300 (Methicillin Resistant S. aureus – MRSA), Staphylococcus aureus ATCC 29213 (Methicillin Susceptible S. aureus – MSSA), Staphylococcus epidermidis ATCC 12228, Enterococcus faecalis ATCC 29212, Micro-coccus luteus ATCC 10240, Bacillus subtilis ATCC 6633 and Bacillus cereus ATCC 10876), Gram-negative bacteria (Bordetella bronchiseptica ATCC 4617, Escherichia coli ATCC 25922, Klebsiella pneumoniae ATCC 13883, Proteus mirabilis ATCC 12453, Salmonella typhimurium ATCC 14028 and Pseudomonas aeruginosa ATCC 9027) and fungi belonging to yeasts (Can-dida albicans ATCC 10231, Candida albicans ATCC 2091, Candida parapsilosis ATCC 22019, Candida glabrata ATCC 90030 and Candida krusei ATCC 14243). The microorganisms be-longing to ATCC came from American Type Culture Collection, routinely used for the evaluation of antimicrobials. All the used microbial cultures were first subcultured on nu-trient agar or Sabouraud agar at 35°C for 18-24 h or 30°C for 24-48 h for bacteria and fungi, […]
(§3) The surface of Mueller-Hinton agar (for bacteria) and RPMI 1640 with MOPS (for fungi) were inoculated with the suspensions of bacterial or fungal species. Microbial suspensions were prepared in sterile saline with an optical density of McFarland standard scale 0.5.
(§4) Samples containing examined compounds were dissolved in dimethyl sulfoxide (DMSO).
(§5) Furthermore, bacterial and fungal suspensions were put onto Petri dishes with solid me-dia containing 2 mg/mL of the tested compounds followed incubation at 37°C for 24h and 30°C for 48h for bacteria and fungi, respectively. The inhibition of microbial growth was judged by comparison with a control culture prepared without any sample tested. Ciprof-loxacin, vancomycin, nitrofurantoin, cefuroxime, ampicillin or nystatin (Sigma) were used as a reference antibacterial or antifungal compounds, respectively.
(§6) Subsequently, the MIC (Minimal Inhibitory Concentration) of the compounds was ex-amined by the microdilution broth method, using their two-fold dilutions in Mueller- […]
(§7) Hinton broth or (for bacteria) and RPMI 1640 broth with MOPS (for fungi) prepared in 96-well polystyrene plates. Final concentrations of the compounds ranged from 1000 to 0.488 µg/ml. Microbial suspensions were prepared in 0.85% NaCl with an optical density of 0.5 McFarland standard. Next each bacterial or fungal suspension was added per each well containing broth and various concentrations of the examined compounds. After incuba-

[2] = test system: Klebsiella pneumoniae ATCC 13883; assay: Broth microdilution MIC/MBC; format: cell-based; conditions: ATCC13883
Source text: as §1, §2, §3, §4, §5, §6, §7

[3] = test system: Bacillus cereus ATCC 10876; assay: Broth microdilution MIC/MBC; format: cell-based
Source text: as §1, §2, §3, §4, §5, §6, §7

[4] = test system: Bordetella bronchiseptica ATCC 4617; assay: Broth microdilution MIC/MBC; format: cell-based; conditions: ATCC4617
Source text: as §1, §2, §3, §4, §5, §6, §7

[5] = test system: Escherichia coli ATCC 25922; assay: Broth microdilution MIC/MBC; format: cell-based; conditions: ATCC25922
Source text: as §1, §2, §3, §4, §5, §6, §7

[6] = test system: Salmonella typhimurium ATCC 14028; assay: Broth microdilution MIC/MBC; format: cell-based; conditions: for MBC / MIC: Salmonella enterica
Source text: as §1
as §2, with “antimicrobials.” for “antimicrobials. All the used microbial cultures were first subcultured on nu-trient agar or Sabouraud agar at 35°C for 18-24 h or 30°C for 24-48 h for bacteria and fungi,”
(§8) Samples containing examined compounds were dissolved in dimethyl sulfoxide (DMSO). […]
as §6, §7

[7] = test system: Micrococcus luteus ATCC 10240; assay: Broth microdilution MIC/MBC; format: cell-based; conditions: for MBC: ATCC10240
Source text: as §1
as §2, with “antimicrobials.” for “antimicrobials. All the used microbial cultures were first subcultured on nu-trient agar or Sabouraud agar at 35°C for 18-24 h or 30°C for 24-48 h for bacteria and fungi,”
as §8, §6, §7

[8] = test system: Proteus mirabilis ATCC 12453; assay: Broth microdilution MIC/MBC; format: cell-based; conditions: ATCC12453
Source text: as §1
as §2, with “antimicrobials.” for “antimicrobials. All the used microbial cultures were first subcultured on nu-trient agar or Sabouraud agar at 35°C for 18-24 h or 30°C for 24-48 h for bacteria and fungi,”
as §8, §6, §7

[9] = test system: Staphylococcus aureus ATCC 43300; assay: Broth microdilution MIC/MBC; format: cell-based; conditions: Staphylococcus aureus ATCC 43300 (MRSA)
Source text: as §1
as §2, with “antimicrobials.” for “antimicrobials. All the used microbial cultures were first subcultured on nu-trient agar or Sabouraud agar at 35°C for 18-24 h or 30°C for 24-48 h for bacteria and fungi,”
as §8, §6, §7

[10] = test system: Staphylococcus epidermidis ATCC 12228; assay: Broth microdilution MIC/MBC; format: cell-based
Source text: as §1
as §2, with “antimicrobials.” for “antimicrobials. All the used microbial cultures were first subcultured on nu-trient agar or Sabouraud agar at 35°C for 18-24 h or 30°C for 24-48 h for bacteria and fungi,”
as §8, §6, §7

[11] = test system: Enterococcus faecalis ATCC 29212; assay: Broth microdilution MIC/MBC; format: cell-based
Source text: as §1, §2, §3, §4, §5, §6, §7

[12] = test system: Pseudomonas aeruginosa ATCC 9027; assay: Broth microdilution MIC/MBC; format: cell-based; conditions: ATCC9027
Source text: as §1
as §2, with “antimicrobials.” for “antimicrobials. All the used microbial cultures were first subcultured on nu-trient agar or Sabouraud agar at 35°C for 18-24 h or 30°C for 24-48 h for bacteria and fungi,”
as §8, §6, §7

[13] = test system: Staphylococcus aureus ATCC 29213; assay: Broth microdilution MIC/MBC; format: cell-based; conditions: ATCC29213
Source text: as §1
as §2, with “antimicrobials.” for “antimicrobials. All the used microbial cultures were first subcultured on nu-trient agar or Sabouraud agar at 35°C for 18-24 h or 30°C for 24-48 h for bacteria and fungi,”
as §8, §6, §7

[14] = test system: Candida krusei ATCC 14243; assay: Broth microdilution MIC/MFC; format: cell-based
Source text: as §1, §2, §3, §4, §5, §6, §7

[15] = test system: Candida glabrata ATCC 90030; assay: Broth microdilution MIC/MFC; format: cell-based
Source text: as §1, §2, §3, §4, §5, §6, §7

[16] = test system: Candida parapsilosis ATCC 22019; assay: Broth microdilution MIC/MFC; format: cell-based
Source text: as §1, §2, §3, §4, §5, §6, §7

[17] = test system: Candida albicans ATCC 2091; assay: Broth microdilution MIC/MFC; format: cell-based
Source text: as §1, §2, §3, §4, §5, §6, §7

[18] = test system: Candida albicans ATCC 10231; assay: Broth microdilution MIC/MFC; format: cell-based
Source text: as §1, §2, §3, §4, §5, §6, §7

O=C1CN(/N=C/c2ccc([N+](=O)[O-])o2)C(=O)N1 [NIT, nitrofurantoin, reference compound]
MIC [1]: 3.91 µg/mL (≈ 16.4 µM) | MBC ([1]; ATCC6633): 3.91 µg/mL (≈ 16.4 µM) | MIC ([1]; ATCC6633, read-out: MIC): 3.91 µg/mL (≈ 16.4 µM) | MBC [2]: 31.2 µg/mL (≈ 131 µM) | MIC [2]: 15.6 µg/mL (≈ 65.6 µM) | MIC [3]: 7.81 µg/mL (≈ 32.8 µM) | MBC ([3]; ATCC10876): 15.6 µg/mL (≈ 65.6 µM) | MIC ([3]; ATCC10876, read-out: MIC): 7.81 µg/mL (≈ 32.8 µM) | MBC [4]: > 1000 µg/mL | MIC [4]: 125 µg/mL (≈ 525 µM) | MBC [5]: 15.6 µg/mL (≈ 65.6 µM) | MIC [5]: 7.81 µg/mL (≈ 32.8 µM) | MBC [6]: 62.5 µg/mL (≈ 262 µM) | MIC [6]: 31.2 µg/mL (≈ 131 µM) | MIC [7]: 62.5 µg/mL (≈ 262 µM) | MBC [7]: 62.5 µg/mL (≈ 262 µM) | MIC ([7]; ATCC10240, read-out: MIC): 62.5 µg/mL (≈ 262 µM) | MBC [8]: 125 µg/mL (≈ 525 µM) | MIC [8]: 62.5 µg/mL (≈ 262 µM) | MBC [9]: 15.6 µg/mL (≈ 65.6 µM) | MIC [9]: 7.81 µg/mL (≈ 32.8 µM) | MIC [10]: 3.91 µg/mL (≈ 16.4 µM) | MBC ([10]; ATCC12228): 7.81 µg/mL (≈ 32.8 µM) | MIC ([10]; ATCC12228, read-out: MIC): 3.91 µg/mL (≈ 16.4 µM)

Cc1ccc(/C=N/NC(=O)c2ccc(O)cc2O)cc1 [Compound 3, 2,4-dihydroxy-N-[(4-methylphenyl)methylidene]benzohydrazide]
MIC ([1]; ATCC6633, read-out: MIC): > 1000 µg/mL | MIC [2]: > 1000 µg/mL | MIC ([3]; ATCC10876, read-out: MIC): > 1000 µg/mL | MIC [4]: > 1000 µg/mL | MIC [5]: > 1000 µg/mL | MIC ([11]; ATCC29212, read-out: MIC): > 1000 µg/mL | MIC [6]: > 1000 µg/mL | MIC [12]: > 1000 µg/mL | MBC/MIC [7]: > 2 | MBC [7]: > 1000 µg/mL | MIC ([7]; ATCC10240, read-out: MIC): 500 µg/mL (≈ 1850 µM) | MIC [13]: > 1000 µg/mL | MIC [8]: > 1000 µg/mL | MIC [9]: > 1000 µg/mL | MIC ([10]; ATCC12228, read-out: MIC): > 1000 µg/mL | MIC ([14]; Pichia kudriavzevii, ATCC14243, read-out: MIC): > 1000 µg/mL | MIC ([15]; Nakaseomyces glabratus, ATCC90030, read-out: MIC): > 1000 µg/mL | MIC ([16]; Lodderomyces parapsilosis, ATCC22019, read-out: MIC): > 1000 µg/mL | MIC ([17]; ATCC2091, read-out: MIC): > 1000 µg/mL | MIC ([18]; ATCC10231, read-out: MIC): > 1000 µg/mL | melting point: 248 °C

C[C@@H]1[C@H](O)[C@@H](C)/C=C/C=C/CC/C=C/C=C/C=C/C=C/C(O[C@H]2O[C@H](C)[C@@H](O)[C@H](N)[C@@H]2O)CC2O[C@](O)(CC(O)C(O)CCC(O)CC(O)CC(O)CC(=O)O[C@H]1C)CC(O)C2C(=O)O (stereo partly drawn) [NY, nystatin, reference compound]
MFC [14]: 0.24 µg/mL (≈ 0.259 µM) | MFC/MIC [14]: 1 | MIC [14]: 0.24 µg/mL (≈ 0.259 µM) | MFC [15]: 0.48 µg/mL (≈ 0.518 µM) | MFC/MIC [15]: 2 | MIC [15]: 0.24 µg/mL (≈ 0.259 µM) | MFC [16]: 0.48 µg/mL (≈ 0.518 µM) | MFC/MIC [16]: 2 | MIC [16]: 0.24 µg/mL (≈ 0.259 µM) | MFC [17]: 0.24 µg/mL (≈ 0.259 µM) | MFC/MIC [17]: 1 | MIC [17]: 0.24 µg/mL (≈ 0.259 µM) | MFC [18]: 0.48 µg/mL (≈ 0.518 µM) | MFC/MIC [18]: 1 | MIC [18]: 0.48 µg/mL (≈ 0.518 µM)

CC1(C)S[C@@H]2[C@H](NC(=O)[C@H](N)c3ccccc3)C(=O)N2[C@H]1C(=O)O [APC, ampicillin, reference compound]
MIC [1]: 62.5 µg/mL (≈ 179 µM) | MIC ([1]; ATCC6633, read-out: MIC): 62.5 µg/mL (≈ 179 µM)

CO/N=C(\C(=O)N[C@@H]1C(=O)N2C(C(=O)O)=C(COC(N)=O)CS[C@H]12)c1ccco1 [CFX, cefuroxime, reference compound]
MIC [1]: 15.62 µg/mL (≈ 36.8 µM) | MIC ([1]; ATCC6633, read-out: MIC): 15.6 µg/mL (≈ 36.8 µM) | MIC [3]: 31.25 µg/mL (≈ 73.6 µM) | MIC ([3]; ATCC10876, read-out: MIC): 31.2 µg/mL (≈ 73.6 µM) | MIC [7]: 0.98 µg/mL (≈ 2.31 µM) | MIC ([7]; ATCC10240, read-out: MIC): 0.98 µg/mL (≈ 2.31 µM) | MIC ([10]; ATCC12228, read-out: MIC): 0.24 µg/mL (≈ 0.566 µM)

CN[C@H](CC(C)C)C(=O)N[C@H]1C(=O)N[C@@H](CC(N)=O)C(=O)N[C@H]2C(=O)N[C@H]3C(=O)N[C@H](C(=O)N[C@H](C(=O)O)c4cc(O)cc(O)c4-c4cc3ccc4O)[C@H](O)c3ccc(c(Cl)c3)Oc3cc2cc(c3O[C@@H]2O[C@H](CO)[C@@H](O)[C@H](O)[C@H]2O[C@H]2C[C@](C)(N)[C@H](O)[C@H](C)O2)Oc2ccc(cc2Cl)[C@H]1O [VA, vancomycin, reference compound]
MBC [11]: 1.95 µg/mL (≈ 1.35 µM) | MBC/MIC [11]: 2 | MIC [11]: 0.98 µg/mL (≈ 0.676 µM)

O=C(O)c1cn(C2CC2)c2cc(N3CCNCC3)c(F)cc2c1=O [CIP, ciprofloxacin, reference compound]
MBC/MIC [6]: 1 | MBC [6]: 0.06 µg/mL (≈ 0.181 µM) | MIC [6]: 0.06 µg/mL (≈ 0.181 µM)
